According to patent publication US20060073994A1, “Liquid detergent composition” (Conopco, Inc., d/b/a UNILEVER, priority 2004, published 2006):

Test system: Protease enzyme
Assay: Residual activity of protease enzyme in liquid detergent formulation with added perfume component after storage
Assay type: biochemical
Conditions: 0.06% by weight perfume component added to 'base' liquid formulation; 2 weeks storage at 37° C.; activity determined at 40° C. in TRIS pH 9 buffer, tetrapeptide substrate; relative to t=0
Procedure: The following ‘base’ liquid detergent formulation was prepared: […]
The residual activity of the protease enzyme in all thus-formed formulations after 2 weeks storage at 37° C., was determined at 40° C. in a TRIS pH 9 buffer and using tetrapeptide as substrate. For this determination, the following protocol was used: Samples of 70 mg of the tested liquid formulation were diluted in 10.00 ml MilliQ water. 10 μl of this solution was added to an assay of 205 μl containing 74.4 mM TRIS pH9 and 0.494 mM tetrapeptide (succinyl-Ala-Ala-Pro-Phe-p-Nitroanilide). The absorbance of the tested samples at a wavelength of […] was measured for 15 minutes at 40° C., using a spectrophotometer. The absolute changes in absorbance as compared to the absorbance measured on a freshly prepared calibration sample were correlated to the measured activity of such freshly prepared sample. The measured protease enzyme activity is expressed as GU/ml.
The residual enzyme activity (expressed as %) is the enzyme activity after storage of the liquid formulation concerned divided by the enzyme activity measured at t=0.

Row | Molecule | Residual activity after 2 weeks [%]
1 | C/C=C\C(=O)C1C(C)=CCCC1(C)C (stereo not drawn) [Alpha damascone] | 68
2 | O=Cc1ccccc1 [Benzaldehyde] | 67
3 | CC(=O)OCc1ccccc1 [Benzyl acetate] | 69
4 | O=C/C=C/c1ccccc1 [Cinnamic aldehyde] | 58
5 | CC(C)=CCCC(C)=CC=O [Citral] | 36
6 | CC(C)=CCCC(C)CC=O (stereo not drawn) [Citronellal] | 62
7 | CC1=CC(C)C(C=O)CC1 (stereo not drawn) [Cyclal C] | 45
8 | CC1=CCC(C(C)C)=CC1 [Gamma terpinolene] | 54
9 | CCCCCCC(C=O)=Cc1ccccc1 [Hexylcinnamic aldehyde] | 81
10 | CC(=O)C1(C)CC2=C(CCCC2(C)C)CC1C (stereo not drawn) [Iso e super] | 75
11 | CC(C=O)Cc1ccc(C(C)(C)C)cc1 (stereo not drawn) [Lilial] | 48
12 | C=C(C)[C@H]1CC=C(C)CC1 [Limonene] | 60
13 | COC(=O)c1ccccc1N [Methyl anthranilate] | 70
14 | CCCCCCCC=O [Octanal] | 44
15 | N#CC(=C1CCCCC1)c1ccccc1 [Peonile] | 73
16 | CC(C)=CCCC1=CCC(C)(C=O)CC1 (stereo not drawn) [Precyclemone] | 74
17 | CC(C)=C1CC[C@@H](C)CC1=O [Pulegone] | 58
18 | CC(C)=CC1CC(C)CCO1 (stereo not drawn) [Rose oxide] | 60
19 | CC1=CCC(=C(C)C)CC1 [Terpinolene] | 47
20 | CCC(C)(O)CCCC(C)C (stereo not drawn) [Tetra hydrolinalool] | 65
21 | CCCCCCCCCC/C=C/C=O [Tridecylenic aldehyde] | 45
22 | CC(CC=O)c1ccccc1 (stereo not drawn) [Trifernal] | 74
23 | COc1cc(C=O)ccc1O [Vanillin] | 43
24 | Vertofix coeur | 68
